Measured values published in patent publication US20250082602A1, “OPHTHALMIC COMPOSITION CONTAINING RECOFLAVONE FOR THE TREATMENT OF DRY EYE DISEASE” (GL PHARMTECH CORP., priority 2021, published 2025).
Like-named read-outs stand apart in the source and are kept apart here.

How the values were obtained:
[1] = tested on: human keratoconjunctival epithelial cells; settings: cited from earlier work
[2] = Cell permeability of dissolved recoflavone; format: in vitro ADME; settings: dissolved state, high degree of ionization
Solubility in water = format: physicochemical; settings: low solubility at low pH, increases with pH
[3] = cited from earlier work
rabbit eyes = experiment: Drug distribution in eye tissues after eye drop administration to rabbit eyes; format: in vivo; settings: 3% eye drop administered to rabbit eyes (data not shown)
Source text: It has a property with low solubility at low pH. As the pH increases, it is ionized and its solubility increases.

**Q.** Which results are given for `COc1ccc(-c2cc(=O)c3c(OC)cc(OCC(=O)O)cc3o2)cc1OC` [recoflavone, 2-((2-(3,4-dimethoxyphenyl)-5-methoxy-4-oxo-4H-chromen-7-yl)oxy) acetic acid]?
**A.** Thickness of the mucin layer ([1]; 100 μM solution of the active ingredient): significantly increased; Mucin proteins by Western blot analysis ([1]; Western blot): MUC5AC only had a tendency to increase; Mucin expression MUC1, MUC4, MUC16 and MUC5AC by real-time PCR ([1]; real-time PCR): tendency to increase significantly for four hours and then decreased rapidly; Cell permeability [2]: poor cell permeability; Solubility in water (Solubility in water): practically insoluble in water; Hygroscopicity ([3]; form of a hydrate): stable without hygroscopicity; Hygroscopicity ([3]; form of an anhydride): has hygroscopicity; Drug distribution in each tissue of eye with time (rabbit eyes): rarely distributed in the tissues located inside the eye and mainly distributed in the surrounding tissues outside of the eye
